Measured values as given in patent US12465607B2, “ALK inhibitors for treatment of ALK-negative cancer and plasma cell-mediated diseases” (UNIVERSITETET I OSLO, priority 2019, dated 2025).
“Also recorded” adds a separate entry of the source. One block for each compound: values may come before it.

Columns and labels:
CLL cells = assay: Viability of activated CLL cells from patients, CellTiter-Glo 72 h (IC50, DSS); format: cell-based, human; settings: CLL cells from 12 new patients
Experimental: CLL cells from patients were stimulated by adherent murine L cells expressing CD40L, BAFF and April for 24 h. The L cells were then removed by immuno-magnetic separation. Washed CLL cells were plated into 384-well plate format (10,000 cells/well) and tested against crizotinib at 5 concentrations in 10-fold dilutions (plates dispensed by an Echo acoustic dispenser, LabCyte Inc., San Jose, CA, USA). The plate was incubated in a humidified environment at 37° C. and 5% CO2. Cell viability was determined after 72 h using the CellTiter-Glo (Promega, Madison, WI, USA) ATP assay according to the manufacturer's instructions and using an Envision 2102 Multilabel reader (PerkinElmer, Shelton, CT, USA). Relative percentage cell viability was calculated by normalising luminescence units for each well to negative (DMSO 0.1%) and positive (100 μM BzCl) control wells. Curve fitting was conducted to obtain IC50 values.
Quantitative scoring of differential drug sensitivity for individual drugs was calculated as drug sensitivity scores (DSS values, Yadav et al., Scientific Reports 4: 5193, 2014). DSS values were calculated for integrated multiple dose-response relationships in high-throughput compound testing as shown.

multiple myeloma cells = assay: Cytotoxic activity against multiple myeloma cells (FIG. 4, L363, AMO-1 and bortezomib-resistant clones); format: cell-based, human; settings: FIG. 4, 24 hr treatment
Experimental: (§1) The Results are the means of 3 independent experiments. Note the concentration-dependent reduction of viability of myeloma cells.
(§2) The cell lines used were the human multiple myeloma cell lines L363 (DSMZ catalogue number ACC 49), AMO-1 (DSMZ catalogue number ACC 538) and ARH-77 (ATCC CRL-1621).
(§3) Multiple myeloma cell lines were maintained in RPMI-1640 culture medium (Sigma-Aldrich, Buchs, Switzerland) supplemented with 10% heat-inactivated fetal bovine serum (FBS), 100 μg/ml streptomycin and 100 U/ml penicillin/streptomycin (Sigma-Aldrich, Buchs, Switzerland). The bortezomib-resistant cell lines were established and maintained from their parental cell line by continuous drug exposure>12 months to their parental cell lines (Soriano et al, Leukemia 30: 2198-2207, 2016).
(§4) The viability of the cells was determined 24 hr post treatment using Cell Counting Kit-8 (CCK-8; MedChemExpress, NJ, USA) according to the manufacturer's instructions.

plasma cells = assay: Viability of in vitro-generated IRF4/BLIMP1 double positive end stage plasma cells; format: cell-based; settings: Homo sapiens, B-cell, 120 h; B-cells stimulated 5 days, inhibitor day 5-7
Description: Negatively selected normal B-cells from blood bank donors were stimulated with sCD40L, IL-21, IL-4 for 5 days. This protocol allows generation of 10-20% end differentiated plasma cells that express IRF4 and BLIMP1. From day 5-7, cells were exposed to titred crizotinib in A, or ceritinib in B.
In A and B, IRF4 vs BLIMP1 in gated CD19^+ B cells is shown. IRF4 and BLIMP1 double positive cells represent end stage plasma cells. Such plasma cells are gated (blue elliptic region) and percent plasma cells are shown. The conditions without inhibitor (0) and with linear Alk-inhibitor (crizotinib, A; ceritinib, B) are shown for concentrations 0.01 μM, 0.1 μM, 1 μM, 10 μM and 100 μM.

AMO-1 = assay: Myeloma cell line viability, CCK-8, 24 hr; format: cell-based; settings: Homo sapiens, AMO1; AMO-1, 24 hr treatment
Experimental: as §1, §2, §3, §4

AMO-1-BTZ = assay: Myeloma cell line viability, CCK-8, 24 hr; format: cell-based; settings: Homo sapiens, 24 hr treatment
Experimental: as §1, §2, §3, §4

AMO-1 cells = assay: IgA secretion by AMO-1 cells, ELISA of supernatant; format: cell-based, human; settings: 3 h
Experimental: (§5) In A, HeLa cells expressing flag-tagged LTK were treated with 1 μM of crizotinib or ceritinib for 30 minutes. Afterwards, cells were lysed and immunoblotted against phosphorylated LTK, which is used as a surrogate for the active form of LTK. […] B, HeLa cells were treated with 1 μM ceritinib for 30 minutes followed by fixation and staining for Sec31A to label ERES. Cells were imaged by confocal microscopy and ERES were counted using ImageJ. C, HeLa cells stably expressing mCherry-tagged mannosidase-II RUSH reporter. Cells were treated with biotin to release the reporter from the ER. After 20 min, a time point where most of the reporter has reached the Golgi, cells were fixed and immunostained for GM130 to label the Golgi apparatus. […] D, IgA secreting AMO-1 cells were treated for 3 h with the indicated doses of crizotinib and the amount of IgA in cell supernatant was determined by ELISA.
Right: Secretion of Ig is reduced by ceritinib. The plasma cell line AMO-1 was washed and added to wells (10^6 cells/well) in the presence of titred ceritinib for 3 h. Supernatants were assayed for IgA secreted by the AMO-1 cells by use of the Human IgA ELISA Kit (Abcam, Cambridge, UK).
1×10^6/ml IgA-secreting AMO-1 cells were seeded in fresh medium with increasing doses of compounds of interest for 3 hr. […]

HeLa cells = assay: ER-to-Golgi trafficking in HeLa cells (ERES staining, mannosidase-II RUSH reporter); format: cell-based; settings: RUSH reporter 20 min after biotin
Experimental: as §5

LTK = biological target: T1, LTK (Homo sapiens, UniProt P29376); assay: LTK inhibition: immunoblot of phosphorylated LTK in cells expressing LTK; format: cell-based; settings: FIG. 5A: HeLa cells expressing flag-tagged LTK, 1 μM, 30 minutes
T1 construct: expressed in transfected cells; host or cells: HeLa cells
Experimental: (§6) Cells were washed twice with PBS and collected in lysis buffer (50 mM Tris-HCl, pH7.4; 1 mM EDTA, 100 mM NaCl, 0.1% SDS and 1% NP-40) supplemented with proteinase and phosphatase inhibitor (Pierce Protease and Phosphatase Inhibitor Mini Tablets, EDTA-free). Lysates were incubated on ice for 10 minutes followed by clearing centrifugation at 20,000×g at 4° C. for 10 min. Supernatants were transferred into fresh tubes and reducing loading buffer was added. Lysates were subjected to SDS-PAGE and transferred onto a nitrocellulose membrane using semi-dry transfer. The membrane was blocked (in ROTI buffer (Roth) or 5% milk in PBS with 0.1% tween) and probed with the appropriate primary antibodies. Subsequently membranes were incubated with horseradish peroxidase-conjugated secondary antibody. Immunoblots were developed using a chemiluminescence reagent (ECL clarity, BioRad) and imaged using ChemiDoc (BioRad).

L363-BTZ = assay: Myeloma cell line viability, CCK-8, 24 hr; format: cell-based, human; settings: Homo sapiens; L363-BTZ, 24 hr treatment
Experimental: as §1, §2, §3, §4

L363 = assay: Myeloma cell line viability, CCK-8, 24 hr; format: cell-based, human; settings: Homo sapiens, L-363; L363, 24 hr treatment
Experimental: as §1, §2, §3, §4

[1] = test system: human L363-BTZ (bortezomib-resistant) myeloma cells; assay: Intrafemoral L363-BTZ luciferase xenograft in NSG mice; format: in vivo; settings: 7 days treatment from day 10; crizotinib 50 mg/kg orally daily; bortezomib 1 mg/kg i.v. twice
Experimental: In this figure, immunocompromised NSG mice were intrafemorally injected with human L363-BTZ (bortezomib-resistant) myeloma cells. The cells were equipped with luciferase for in vivo monitoring of disease progression. After 10 days, mice were treated with bortezomib i.v. twice over a 7 day period and with crizotinib orally every day over the 7 day period. The images on the left show examples of tumour load in the different groups at days 4 and 7 of treatment (days 14 and 17 post tumour inoculation), and the graph on the right depicts the average luciferase signal for each mouse in each cohort (n=4) normalised to day 0 of the treatment (day 10 post tumour inoculation). Statistical significance between the groups was assessed with two-way ANOVA and between the time-points using one-way ANOVA with Tukey post-test.
NSG (NOD-scid IL2Rgamma^null) mice were obtained from The Jackson Laboratory (No. 005557, CA, USA) and kept in isolated ventilated cages with food ad libitum. Age matched (6-8 weeks old) mice were injected with 0.5×10^5 L363-BTZ_Luc+_TdTomato+ multiple myeloma cells (equipped with luciferase vector for monitoring, obtained from Addgene: #72486) into the right femur. Tumour growth was monitored twice over the week following luciferin injection (150 mg/kg, obtained from BioVision, CA, USA). […]

[2] = test system: Hepatocellular carcinoma cells (HepG2); assay: Apoptosis (cleaved caspase 3 immunoblot) in HepG2 cells with doxorubicin; format: cell-based; settings: 5 μM doxorubicin alone, 24 h
Experimental: In B, Hepatocellular carcinoma cells (HepG2) were treated with DMSO (untreated) or with increasing concentrations (1, 2 and 5 μM) of doxorubicin for 24 h and apoptosis was assessed by immunoblotting for cleaved caspase 3. […] Cells were also treated with the same concentrations of doxorubicin in the presence of 1 μM crizotinib for 24 h.
as §6

T1 sequence (P29376 17-864): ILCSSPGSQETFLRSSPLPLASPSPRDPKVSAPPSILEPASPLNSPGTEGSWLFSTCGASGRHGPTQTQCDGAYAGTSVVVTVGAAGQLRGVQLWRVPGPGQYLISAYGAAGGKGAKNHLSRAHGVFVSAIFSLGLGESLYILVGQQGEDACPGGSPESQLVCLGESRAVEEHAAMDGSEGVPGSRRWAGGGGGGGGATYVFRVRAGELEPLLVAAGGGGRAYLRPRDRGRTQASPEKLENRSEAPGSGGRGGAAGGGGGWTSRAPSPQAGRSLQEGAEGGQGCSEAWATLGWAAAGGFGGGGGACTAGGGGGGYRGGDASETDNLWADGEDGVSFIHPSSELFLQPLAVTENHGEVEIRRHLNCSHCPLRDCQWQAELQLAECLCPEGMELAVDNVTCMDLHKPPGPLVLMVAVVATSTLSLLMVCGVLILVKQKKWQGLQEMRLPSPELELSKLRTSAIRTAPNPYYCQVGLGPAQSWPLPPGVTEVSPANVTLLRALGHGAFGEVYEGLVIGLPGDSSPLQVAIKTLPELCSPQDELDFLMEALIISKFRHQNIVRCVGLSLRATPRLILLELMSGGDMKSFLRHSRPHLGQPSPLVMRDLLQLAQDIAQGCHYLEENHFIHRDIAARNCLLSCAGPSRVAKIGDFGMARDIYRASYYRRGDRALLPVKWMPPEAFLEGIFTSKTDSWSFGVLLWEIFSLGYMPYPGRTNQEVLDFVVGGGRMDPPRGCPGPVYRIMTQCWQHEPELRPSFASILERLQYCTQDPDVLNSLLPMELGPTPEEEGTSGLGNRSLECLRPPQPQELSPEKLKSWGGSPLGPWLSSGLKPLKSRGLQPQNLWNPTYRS

SMILES: C[C@H]1Oc2cc(cnc2N)-c2c(nn(C)c2C#N)CN(C)C(=O)c2ccc(F)cc21 [lorlatinib]
patients with susceptible CLL cells, cut-off DSS=10 (CLL cells): 0/12
cytotoxic activity against multiple myeloma cells (multiple myeloma cells): did not efficiently kill myeloma cells

IC50 (AMO-1): 2090 nM
IC50 (AMO-1-BTZ): 2770 nM
inhibition of LTK (LTK): inhibit LTK
IC50 (L363-BTZ): 790 nM
IC50 (L363): 1030 nM
SMILES: Cc1cc(Nc2ncc(Cl)c(Nc3ccccc3S(=O)(=O)C(C)C)n2)c(OC(C)C)cc1C1CCNCC1 [ceritinib, 5-chloro-2-N-(5-methyl-4-piperidin-4-yl-2-propan-2-yloxyphenyl)-4-N-(2-propan-2-ylsulfonylphenyl)pyrimidine-2,4-diamine]
IC50 (plasma cells): < 1 nM
patients with susceptible CLL cells, cut-off DSS=10 (CLL cells): 11/12
immunoglobulin (IgA) secretion (AMO-1 cells): reduced; also recorded: inhibits immunoglobulin secretion
ER-to-Golgi trafficking (HeLa cells): inhibits ER-to-Golgi trafficking
cytotoxic activity against multiple myeloma cells (multiple myeloma cells): cytotoxic activity

SMILES: COc1cc(N2CCC(N3CCN(C)CC3)CC2)ccc1Nc1ncc(Cl)c(Nc2ccccc2P(C)(C)=O)n1 [brigatinib, 5-chloro-4-N-(2-dimethylphosphorylphenyl)-2-N-[2-methoxy-4-[4-(4-methylpiperazin-1-yl)piperidin-1-yl]phenyl]pyrimidine-2,4-diamine]
patients with susceptible CLL cells, cut-off DSS=10 (CLL cells): 4/12

SMILES: C[C@@H]1CN(C(=O)c2ccc(NC(=O)c3cc(O[C@H](C)c4c(Cl)ccc(F)c4Cl)c(N)nn3)cc2)C[C@H](C)N1 [ensartinib, 6-amino-5-[(1R)-1-(2,6-dichloro-3-fluorophenyl)ethoxy]-N-[4-[(3R,5S)-3,5-dimethylpiperazine-1-carbonyl]phenyl]pyridazine-3-carboxamide]
patients with susceptible CLL cells, cut-off DSS=10 (CLL cells): 11/12
cytotoxic activity against multiple myeloma cells (multiple myeloma cells): cytotoxic activity

SMILES: CC(C)C[C@H](NC(=O)[C@H](Cc1ccccc1)NC(=O)c1cnccn1)B(O)O [bortezomib]
tumour burden (luciferase signal) [1]: confirmed proteasome inhibitor resistance

IC50 (AMO-1): 13300 nM
IC50 (AMO-1-BTZ): 17600 nM
IC50 (L363-BTZ): 6220 nM
IC50 (L363): 6120 nM
SMILES: CCc1cc2c(cc1N1CCC(N3CCOCC3)CC1)C(C)(C)c1[nH]c3cc(C#N)ccc3c1C2=O [alectinib, 9-ethyl-6,6-dimethyl-8-(4-morpholin-4-ylpiperidin-1-yl)-11-oxo-5H-benzo[b]carbazole-3-carbonitrile]
cytotoxic activity against multiple myeloma cells (multiple myeloma cells): cytotoxic activity

SMILES: COc1cccc2c1C(=O)c1c(O)c3c(c(O)c1C2=O)C[C@@](O)(C(=O)CO)C[C@@H]3O[C@H]1C[C@H](N)[C@H](O)[C@H](C)O1 [doxorubicin]
cell death (cleaved caspase 3) [2]: only weakly induces cell death

SMILES: CN1CCN(c2ccc(C(=O)Nc3n[nH]c4ccc(Cc5cc(F)cc(F)c5)cc34)c(NC3CCOCC3)c2)CC1 [entrectinib, N-[5-[(3,5-difluorophenyl)methyl]-1H-indazol-3-yl]-4-(4-methylpiperazin-1-yl)-2-(oxan-4-ylamino)benzamide]
patients with susceptible CLL cells, cut-off DSS=10 (CLL cells): 12/12
cytotoxic activity against multiple myeloma cells (multiple myeloma cells): cytotoxic activity
